Key:
Assay in all cases: KINOMEscan competition binding
Conditions in all cases: compound 10.0 µM
EGFR (human) = EGFR (human) (UniProt P00533)
DYRK1A (human) = DYRK1A (human) (UniProt Q13627)
CDK13 (human) = CDK13 (human) (UniProt Q14004)
ERN1 (human) = ERN1 (human) (UniProt O75460)
CDKL3 (human) = CDKL3 (human) (UniProt Q8IVW4)
SBK1 (human) = SBK1 (human) (UniProt Q52WX2)
[1] = system: PIK3CA (human), P42336 [C420R]
NIM1 (human) = NIM1 (human) (UniProt Q8IY84)
ICK (human) = ICK (human) (UniProt Q9UPZ9)
SGK3 (human) = SGK3 (human) (UniProt Q96BR1)
PIK3C2G (human) = PIK3C2G (human) (UniProt O75747)
STK39 (human) = STK39 (human) (UniProt Q9UEW8)
PIP5K1C (human) = PIP5K1C (human) (UniProt O60331)
PIK3CG (human) = PIK3CG (human) (UniProt P48736)
GRK7 (human) = GRK7 (human) (UniProt Q8WTQ7)
CRK2 (P.falciparum) = CRK2 (P.falciparum) (UniProt P61075)
NEK3 (human) = NEK3 (human) (UniProt P51956)
CDK4 CCND3 (human) = CDK4 CCND3 (human) (UniProt P11802+P30281)
HIPK4 (human) = HIPK4 (human) (UniProt Q8NE63)
RPS6KB1 (human) = RPS6KB1 (human) (UniProt P23443)
[2] = system: PIK3CA (human), P42336 [H1047Y]
DSTYK (human) = DSTYK (human) (UniProt Q6XUX3)
[3] = system: PIK3CA (human), P42336 [Q546K]
MAST1 (human) = MAST1 (human) (UniProt Q9Y2H9)
MAP3K13 (human) = MAP3K13 (human) (UniProt O43283)
[4] = system: FLT3 (human), P36888 [K663Q]
YSK4 (human) = YSK4 (human) (UniProt Q56UN5)
Sequence of YSK4 (human) (Q56UN5 whole entry, looked up): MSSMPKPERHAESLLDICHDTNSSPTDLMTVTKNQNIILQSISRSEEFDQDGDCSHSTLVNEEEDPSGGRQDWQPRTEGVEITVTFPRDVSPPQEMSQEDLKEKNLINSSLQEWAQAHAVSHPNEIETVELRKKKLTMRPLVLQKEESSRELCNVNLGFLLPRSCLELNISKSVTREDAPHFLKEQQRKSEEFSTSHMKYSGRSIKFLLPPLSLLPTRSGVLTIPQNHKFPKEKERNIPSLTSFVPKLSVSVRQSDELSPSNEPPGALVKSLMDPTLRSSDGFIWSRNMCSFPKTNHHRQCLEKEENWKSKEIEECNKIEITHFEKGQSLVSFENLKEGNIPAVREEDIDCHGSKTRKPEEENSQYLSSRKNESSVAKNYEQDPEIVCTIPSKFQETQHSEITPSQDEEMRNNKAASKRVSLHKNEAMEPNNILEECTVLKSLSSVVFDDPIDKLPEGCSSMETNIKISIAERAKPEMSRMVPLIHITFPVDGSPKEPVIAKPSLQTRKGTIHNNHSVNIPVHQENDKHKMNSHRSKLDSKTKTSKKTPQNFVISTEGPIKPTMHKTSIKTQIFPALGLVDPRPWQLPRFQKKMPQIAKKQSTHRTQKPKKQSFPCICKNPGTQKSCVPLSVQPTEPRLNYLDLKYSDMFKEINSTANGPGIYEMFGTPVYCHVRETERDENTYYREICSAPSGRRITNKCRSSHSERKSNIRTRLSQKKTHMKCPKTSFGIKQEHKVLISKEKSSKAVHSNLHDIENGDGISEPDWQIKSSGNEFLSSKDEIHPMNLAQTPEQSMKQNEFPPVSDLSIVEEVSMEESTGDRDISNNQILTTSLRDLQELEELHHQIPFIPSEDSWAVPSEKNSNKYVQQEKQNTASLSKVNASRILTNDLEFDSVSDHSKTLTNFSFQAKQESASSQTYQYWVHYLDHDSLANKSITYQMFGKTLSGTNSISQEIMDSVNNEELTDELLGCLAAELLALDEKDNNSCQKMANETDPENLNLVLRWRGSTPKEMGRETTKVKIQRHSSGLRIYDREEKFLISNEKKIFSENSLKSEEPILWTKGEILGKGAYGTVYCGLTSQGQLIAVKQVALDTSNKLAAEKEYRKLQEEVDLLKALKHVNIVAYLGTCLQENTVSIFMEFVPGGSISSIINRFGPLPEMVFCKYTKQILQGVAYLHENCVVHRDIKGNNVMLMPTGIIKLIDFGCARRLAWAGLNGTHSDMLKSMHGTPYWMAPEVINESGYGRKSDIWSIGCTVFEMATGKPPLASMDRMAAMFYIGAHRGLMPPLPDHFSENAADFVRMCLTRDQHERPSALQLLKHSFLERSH

OXSR1 (human) = OXSR1 (human) (UniProt O95747)
PIP4K2C (human) = PIP4K2C (human) (UniProt Q8TBX8)
[5] = system: EGFR (human), P00533 [746-750 del]
Sequence of EGFR (human), P00533 [746-750 del] (P00533 whole entry, looked up, stated change not applied): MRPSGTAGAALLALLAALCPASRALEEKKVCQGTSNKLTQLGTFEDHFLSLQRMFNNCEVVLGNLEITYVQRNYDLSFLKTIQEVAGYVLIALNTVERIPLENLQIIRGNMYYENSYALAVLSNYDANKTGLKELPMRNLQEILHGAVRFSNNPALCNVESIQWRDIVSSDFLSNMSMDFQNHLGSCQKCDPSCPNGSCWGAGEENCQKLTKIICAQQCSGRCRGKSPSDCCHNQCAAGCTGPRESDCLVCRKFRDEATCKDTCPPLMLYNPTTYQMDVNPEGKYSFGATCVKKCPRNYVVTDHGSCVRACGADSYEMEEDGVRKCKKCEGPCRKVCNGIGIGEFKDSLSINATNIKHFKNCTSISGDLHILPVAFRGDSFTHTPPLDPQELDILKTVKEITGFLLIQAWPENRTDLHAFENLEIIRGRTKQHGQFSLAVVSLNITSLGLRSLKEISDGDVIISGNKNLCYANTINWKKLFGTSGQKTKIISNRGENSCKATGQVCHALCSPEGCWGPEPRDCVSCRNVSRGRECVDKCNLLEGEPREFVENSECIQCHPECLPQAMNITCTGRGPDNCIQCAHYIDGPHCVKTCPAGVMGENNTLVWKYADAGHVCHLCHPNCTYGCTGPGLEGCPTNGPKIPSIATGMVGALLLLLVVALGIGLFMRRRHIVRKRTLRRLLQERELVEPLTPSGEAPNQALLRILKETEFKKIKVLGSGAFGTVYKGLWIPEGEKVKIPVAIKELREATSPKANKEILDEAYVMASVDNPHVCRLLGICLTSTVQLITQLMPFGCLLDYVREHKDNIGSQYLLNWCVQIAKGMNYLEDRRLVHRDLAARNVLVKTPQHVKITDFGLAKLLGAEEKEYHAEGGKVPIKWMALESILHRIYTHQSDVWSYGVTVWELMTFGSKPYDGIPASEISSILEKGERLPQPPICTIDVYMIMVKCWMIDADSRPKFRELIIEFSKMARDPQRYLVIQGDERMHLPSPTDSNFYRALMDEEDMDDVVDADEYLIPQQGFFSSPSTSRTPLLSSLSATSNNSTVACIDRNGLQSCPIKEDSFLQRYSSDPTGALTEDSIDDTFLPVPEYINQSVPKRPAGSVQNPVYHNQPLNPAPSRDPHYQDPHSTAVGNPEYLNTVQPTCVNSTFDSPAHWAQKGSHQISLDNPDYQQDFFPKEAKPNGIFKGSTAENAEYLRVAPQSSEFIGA

CPK1 (P.falciparum) = system: CPK1 (P.falciparum)
PRKCI (human) = PRKCI (human) (UniProt P41743)
BRAF (human) = BRAF (human) (UniProt P15056)
Sequence of BRAF (human) (P15056 whole entry, looked up): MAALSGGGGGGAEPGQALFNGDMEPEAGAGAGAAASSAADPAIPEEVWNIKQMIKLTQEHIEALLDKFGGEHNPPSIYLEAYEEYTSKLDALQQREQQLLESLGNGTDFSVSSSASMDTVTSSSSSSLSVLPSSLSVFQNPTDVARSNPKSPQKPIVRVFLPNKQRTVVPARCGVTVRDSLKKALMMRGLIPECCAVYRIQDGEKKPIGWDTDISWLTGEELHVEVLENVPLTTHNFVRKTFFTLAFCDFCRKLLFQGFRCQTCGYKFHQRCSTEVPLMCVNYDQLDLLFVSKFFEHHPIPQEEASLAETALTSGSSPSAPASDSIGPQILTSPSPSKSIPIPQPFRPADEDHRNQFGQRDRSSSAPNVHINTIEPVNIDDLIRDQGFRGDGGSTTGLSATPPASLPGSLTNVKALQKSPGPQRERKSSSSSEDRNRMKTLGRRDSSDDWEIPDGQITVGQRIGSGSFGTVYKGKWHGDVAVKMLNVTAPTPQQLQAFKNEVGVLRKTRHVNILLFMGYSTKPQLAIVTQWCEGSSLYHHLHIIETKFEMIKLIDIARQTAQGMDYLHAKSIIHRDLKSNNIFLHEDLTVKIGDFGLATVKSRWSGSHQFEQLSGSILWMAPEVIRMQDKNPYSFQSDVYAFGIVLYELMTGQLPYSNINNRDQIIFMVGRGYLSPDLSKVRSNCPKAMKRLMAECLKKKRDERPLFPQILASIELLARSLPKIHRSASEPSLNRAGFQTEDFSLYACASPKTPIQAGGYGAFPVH

ERBB3 (human) = ERBB3 (human) (UniProt P21860)
[6] = system: PIK3CA (human), P42336 [E545K]

Sequence of EGFR (human) (P00533 whole entry, looked up): as the sequence (P00533 whole entry, looked up, stated change not applied) above
Sequence of CDKL3 (human) (Q8IVW4 whole entry, looked up): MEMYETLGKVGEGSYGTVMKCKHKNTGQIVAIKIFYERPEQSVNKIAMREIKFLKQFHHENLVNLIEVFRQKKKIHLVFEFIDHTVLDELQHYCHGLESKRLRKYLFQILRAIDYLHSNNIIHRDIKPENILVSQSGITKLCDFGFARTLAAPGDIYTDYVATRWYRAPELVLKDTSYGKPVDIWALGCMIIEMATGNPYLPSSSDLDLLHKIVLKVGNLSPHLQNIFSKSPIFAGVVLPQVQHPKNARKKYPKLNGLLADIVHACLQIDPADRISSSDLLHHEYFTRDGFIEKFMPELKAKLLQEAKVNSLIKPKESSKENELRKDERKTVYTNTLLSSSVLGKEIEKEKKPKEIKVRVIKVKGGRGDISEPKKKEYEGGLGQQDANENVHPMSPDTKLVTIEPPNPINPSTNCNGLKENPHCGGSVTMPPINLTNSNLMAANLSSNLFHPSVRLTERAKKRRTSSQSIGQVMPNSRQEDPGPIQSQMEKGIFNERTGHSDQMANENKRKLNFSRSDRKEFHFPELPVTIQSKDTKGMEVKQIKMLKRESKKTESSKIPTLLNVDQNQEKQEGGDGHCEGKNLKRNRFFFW

O=C(O)c1ccc(Nc2ncc3c(n2)-c2ccc(Cl)cc2C(c2c(F)cccc2F)=NC3)cc1
kinase still bound, per cent of control (EGFR (human)): 43%
kinase still bound, per cent of control (DYRK1A (human)): 52%
kinase still bound, per cent of control (CDK13 (human)): 100%
kinase still bound, per cent of control (ERN1 (human)): 100%
kinase still bound, per cent of control (CDKL3 (human)): 100%
kinase still bound, per cent of control (SBK1 (human)): 100%
kinase still bound, per cent of control [1]: 67%
kinase still bound, per cent of control (NIM1 (human)): 100%
kinase still bound, per cent of control (ICK (human)): 86%
kinase still bound, per cent of control (SGK3 (human)): 100%
kinase still bound, per cent of control (PIK3C2G (human)): 16%
kinase still bound, per cent of control (STK39 (human)): 100%
kinase still bound, per cent of control (PIP5K1C (human)): 49%
kinase still bound, per cent of control (PIK3CG (human)): 100%
kinase still bound, per cent of control (GRK7 (human)): 31%
kinase still bound, per cent of control (CRK2 (P.falciparum)): 100%
kinase still bound, per cent of control (NEK3 (human)): 100%
kinase still bound, per cent of control (CDK4 CCND3 (human)): 100%
kinase still bound, per cent of control (HIPK4 (human)): 31%
kinase still bound, per cent of control (RPS6KB1 (human)): 54%
kinase still bound, per cent of control [2]: 27%
kinase still bound, per cent of control (DSTYK (human)): 100%
kinase still bound, per cent of control [3]: 14%
kinase still bound, per cent of control (MAST1 (human)): 100%
kinase still bound, per cent of control (MAP3K13 (human)): 100%
kinase still bound, per cent of control [4]: 68%
kinase still bound, per cent of control (YSK4 (human)): 62%
kinase still bound, per cent of control (OXSR1 (human)): 94%
kinase still bound, per cent of control (PIP4K2C (human)): 26%
kinase still bound, per cent of control [5]: 28%
kinase still bound, per cent of control (CPK1 (P.falciparum)): 63%
kinase still bound, per cent of control (PRKCI (human)): 100%
kinase still bound, per cent of control (BRAF (human)): 100%
kinase still bound, per cent of control (ERBB3 (human)): 74%
kinase still bound, per cent of control [6]: 100%

Reference: the kinase profiling compilation of Christmann-Franck et al. (2016)
